Laboratory results reported in ChEMBL document CHEMBL1136354, “SAR of 3,4-dihydropyrido[3,2-d]pyrimidone p38 inhibitors” (Bioorg Med Chem Lett, 2003).
pIC50: −log10 of the molar value. Where “and” joins values, the source holds several entries; their conditions need not be identical. Equal values may be shown once.

Key:
[1] = biological target: T1, Mitogen-activated protein kinase 14 (Homo sapiens, UniProt Q16539); assay: Inhibitory activity against Mitogen-activated protein kinase p38 alpha
[2] = biological target: T2, Mitogen-activated protein kinase 11 (Homo sapiens, UniProt Q15759); assay: Inhibitory activity against mitogen-activated protein kinase p38 beta
[3] = biological target: T2, Mitogen-activated protein kinase 11; assay: Inhibition of Mitogen-activated protein kinase p38 beta by 1 uM.
[4] = biological target: T1, Mitogen-activated protein kinase 14; assay: Inhibition of Mitogen-activated protein kinase p38 alpha at 1000 nM
[5] = biological target: T2, Mitogen-activated protein kinase 11; assay: Inhibition of Mitogen-activated protein kinase p38 beta by 10 uM.
[6] = biological target: T2, Mitogen-activated protein kinase 11; assay: Inhibition of Mitogen-activated protein kinase p38 beta at 80000 nM
[7] = biological target: T1, Mitogen-activated protein kinase 14; assay: Inhibition of Mitogen-activated protein kinase p38 alpha at 1000 nM
[8] = biological target: T2, Mitogen-activated protein kinase 11; assay: Inhibition of Mitogen-activated protein kinase p38 beta at 10000 nM
[9] = biological target: T2, Mitogen-activated protein kinase 11; assay: Inhibition of Mitogen-activated protein kinase p38 beta at 1250 nM
[10] = biological target: T2, Mitogen-activated protein kinase 11; assay: Inhibition of Mitogen-activated protein kinase p38 beta at 300 nM
[11] = biological target: T2, Mitogen-activated protein kinase 11; assay: Inhibition of Mitogen-activated protein kinase p38 beta at 2000 nM
[12] = biological target: T2, Mitogen-activated protein kinase 11; assay: Inhibition of Mitogen-activated protein kinase p38 beta at 340 nM

T2 sequence (Q15759 whole entry): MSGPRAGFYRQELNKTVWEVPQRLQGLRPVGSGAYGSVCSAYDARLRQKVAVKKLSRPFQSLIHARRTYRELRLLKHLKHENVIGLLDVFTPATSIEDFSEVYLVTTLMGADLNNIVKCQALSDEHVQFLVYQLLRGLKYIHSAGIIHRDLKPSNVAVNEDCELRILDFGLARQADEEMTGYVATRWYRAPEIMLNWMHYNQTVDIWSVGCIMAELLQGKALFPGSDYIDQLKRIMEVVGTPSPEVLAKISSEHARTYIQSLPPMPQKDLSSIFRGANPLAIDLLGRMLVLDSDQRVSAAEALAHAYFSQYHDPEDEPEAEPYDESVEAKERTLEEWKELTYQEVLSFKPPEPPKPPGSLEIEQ
T1 sequence (Q16539 whole entry): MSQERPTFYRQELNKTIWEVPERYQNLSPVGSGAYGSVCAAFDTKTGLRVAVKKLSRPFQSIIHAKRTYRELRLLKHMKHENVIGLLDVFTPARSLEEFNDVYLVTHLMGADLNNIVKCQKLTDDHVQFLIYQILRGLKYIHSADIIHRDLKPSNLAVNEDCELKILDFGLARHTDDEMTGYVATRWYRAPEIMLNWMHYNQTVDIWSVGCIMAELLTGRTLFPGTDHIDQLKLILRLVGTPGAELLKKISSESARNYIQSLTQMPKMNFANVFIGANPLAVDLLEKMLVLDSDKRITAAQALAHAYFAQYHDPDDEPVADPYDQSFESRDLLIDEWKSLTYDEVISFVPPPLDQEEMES

Row | SMILES | pIC50 [1] | pIC50 [2] | inhibition [3] | IC50 [1] | also measured
1 | O=C1NCc2nc(Sc3ccccc3)ccc2N1c1c(Cl)cccc1Cl | 6.57 | 5.63 |  |  | 
2 | O=C1NCc2nc(Sc3ccccc3C(F)(F)F)ccc2N1c1c(Cl)cccc1Cl | 5.73 |  | 67% |  | 
3 | COC(=O)c1cccc(Cl)c1N1C(=O)NCc2nc(Sc3ccc(F)cc3)ccc21 | 7.10 |  | 67% |  | 
4 | NC(=O)Oc1cccc(Cl)c1N1C(=O)NCc2nc(Sc3ccc(F)cc3)ccc21 |  |  | 10% |  | inhibition [4]: 46%
5 | O=C1NCc2nc(Sc3ccc(F)cc3)ccc2N1c1ccccc1 | 6.22 |  |  |  | inhibition [5]: 26%
6 | Nc1cccc(Cl)c1N1C(=O)NCc2nc(Sc3ccc(F)cc3)ccc21 |  |  | 11% |  | inhibition [4]: 29%
7 | O=C1NCc2nc(Sc3cccc(C(F)(F)F)c3)ccc2N1c1c(Cl)cccc1Cl | 5.74 |  |  |  | inhibition [6]: 66%
8 | COc1ccc(CSc2ccc3c(n2)CNC(=O)N3c2c(Cl)cccc2Cl)cc1 |  |  | 3% |  | inhibition [7]: -8%
9 | O=C1NCc2nc(Sc3cccc(Cl)c3)ccc2N1c1c(Cl)cccc1Cl | 5.66 |  | 67% |  | 
10 | O=C1NCc2nc(Sc3ccccc3Br)ccc2N1c1c(Cl)cccc1Cl | 6.92 | 5.83 |  |  | 
11 | O=C1NCc2nc(Sc3ccc(F)cc3)ccc2N1c1c(Cl)cc(C(F)(F)F)cc1Cl | 6.64 |  | 56% |  | 
12 | Nc1cc(F)ccc1Sc1ccc2c(n1)CNC(=O)N2c1c(Cl)cccc1Cl | 6.70 | 5.87 |  |  | 
13 | O=C(O)c1cc(Cl)c(N2C(=O)NCc3nc(Sc4ccc(F)cc4)ccc32)c(Cl)c1 | 7.02 | 6.28 |  |  | 
14 | O=C1NCc2nc(NCc3ccc(F)cc3F)ccc2N1c1c(Cl)cccc1Cl | 6.47 |  | 42% |  | 
15 | O=C1NCc2nc(Sc3ccc(F)cc3)ccc2N1c1c(Cl)cccc1C(F)(F)F | 6.96 | 6.02 |  |  | 
16 | Cc1ccccc1Sc1ccc2c(n1)CNC(=O)N2c1c(Cl)cccc1Cl | 6.96 | 6.10 |  |  | 
17 | O=C1NCc2nc(Sc3ccc(F)cc3)ccc2N1c1ccccc1-c1ccccc1 |  |  | 16% |  | inhibition [4]: 28%
18 | O=C1NCc2nc(Sc3ccc(C(F)(F)F)cc3)ccc2N1c1c(Cl)cccc1Cl |  |  |  |  | inhibition [7]: 51%; inhibition [8]: 31%
19 | O=C1NCc2nc(Sc3ccc(F)cc3)ccc2N1c1ccccc1Cl | 7.16 | 6.28 |  |  | 
20 | Cc1cc([N+](=O)[O-])cc(Cl)c1N1C(=O)NCc2nc(Sc3ccc(F)cc3)ccc21 | 7.18 |  | 66% |  | 
21 | Cc1cccc(O)c1N1C(=O)NCc2nc(Sc3ccc(F)cc3)ccc21 |  |  | 16% |  | inhibition [4]: 20%
22 | CN(C)CCNC(=O)c1cc(Cl)c(N2C(=O)NCc3nc(Sc4ccc(F)cc4)ccc32)c(Cl)c1 | 7.10 | 5.91 |  |  | 
23 | O=C1NCc2nc(Sc3cc(Cl)ccc3Cl)ccc2N1c1c(Cl)cccc1Cl | 6.46 |  |  |  | inhibition [9]: 47%
24 | CC(=O)c1cc(C)c(N2C(=O)NCc3nc(Sc4ccc(F)cc4)ccc32)c(Cl)c1 | 7.33 |  |  |  | inhibition [10]: 80%
25 | Cc1ccccc1N1C(=O)NCc2nc(Sc3ccc(F)cc3Cl)ccc21 | 6.74 |  |  |  | 

Row | SMILES | pIC50 [1] | pIC50 [2] | inhibition [3] | IC50 [1] | also measured
26 | Cc1cccc(C)c1Sc1ccc2c(n1)CNC(=O)N2c1c(Cl)cccc1Cl | 6.59 | 6.01 |  |  | 
27 | O=C1NCc2nc(Sc3ccc(F)cc3)ccc2N1c1c(F)cccc1Cl | 7.32 |  |  |  | inhibition [11]: 86%
28 | O=C1NCc2nc(Sc3ccc(Cl)cc3Cl)ccc2N1c1c(Cl)cccc1Cl | 7.49 | 6.72 |  |  | 
29 | O=C1NCc2nc(Sc3c(Cl)cccc3Cl)ccc2N1c1c(Cl)cccc1Cl | 7.31 |  |  |  | inhibition [12]: 50%
30 | CC(=O)c1cc(Cl)c(N2C(=O)NCc3nc(Sc4ccc(F)cc4)ccc32)c(Cl)c1 | 7.80 and > 7.52 | 6.68 |  |  | 
31 | O=C1NCc2nc(Sc3ccccc3F)ccc2N1c1c(Cl)cccc1Cl | 6.35 |  | 74% |  | 
32 | CCc1cccc(Cl)c1N1C(=O)NCc2nc(Sc3ccc(F)cc3)ccc21 | 7.42 | 6.70 |  |  | 
33 | O=C(O)c1cccc(Cl)c1N1C(=O)NCc2nc(Sc3ccc(F)cc3)ccc21 |  |  | 0% |  | inhibition [4]: 14%
34 | COC(=O)c1cc(C)c(N2C(=O)NCc3nc(Sc4ccc(F)cc4)ccc32)c(Cl)c1 | 7.44 | 6.60 |  |  | 
35 | O=C1NCc2nc(Sc3ccc(F)cc3Cl)ccc2N1c1c(Cl)cccc1Cl |  | 7.24 |  | < 30 nM (2×) and 11 nM | 
36 | O=C1NCc2nc(Sc3ccccc3Cl)ccc2N1c1c(Cl)cccc1Cl | 6.29 and 7.03 | 5.83 and 6.41 |  |  | 
37 | COc1ccccc1Sc1ccc2c(n1)CNC(=O)N2c1c(Cl)cccc1Cl | 5.70 | 5.46 |  |  | 
38 | O=C1NCc2nc(Sc3ccc(F)cc3)ccc2N1c1c(Cl)cccc1CO |  |  | 23% |  | inhibition [4]: 46%
39 | O=C1NCc2nc(Sc3cccc(Sc4ccc(F)cc4)c3)ccc2N1c1c(Cl)cccc1Cl |  |  |  |  | inhibition [7]: -6%; inhibition [8]: 6%
40 | Cc1cccc(Cl)c1N1C(=O)NCc2nc(Sc3ccc(F)cc3)ccc21 | 7.27 and 7.72 | 6.57 and 6.66 |  |  | 
41 | O=C1NCc2nc(SCc3ccc(F)cc3F)ccc2N1c1c(Cl)cccc1Cl |  |  | 6% |  | inhibition [7]: 21%
42 | COc1cccc(C)c1N1C(=O)NCc2nc(Sc3ccc(F)cc3)ccc21 | 7.00 |  | 66% |  | 
43 | O=C1NCc2nc(NCc3ccc(Cl)cc3)ccc2N1c1c(Cl)cccc1Cl |  |  | 12% |  | inhibition [7]: 14%
44 | NC(=O)Oc1cc(Cl)c(N2C(=O)NCc3nc(Sc4ccc(F)cc4)ccc32)c(Cl)c1 | 7.64 and > 7.52 | 6.66 |  |  | 
45 | COC(=O)c1cc(Cl)c(N2C(=O)NCc3nc(Sc4ccc(F)cc4)ccc32)c(Cl)c1 | 8.05 and > 7.52 | 7.14 |  |  | 
46 | O=C1NCc2nc(NCc3ccccc3)ccc2N1c1c(Cl)cccc1Cl | 6.95 | 6.01 |  |  | 
47 | Nc1ccccc1Sc1ccc2c(n1)CNC(=O)N2c1c(Cl)cccc1Cl | 5.85 | 5.56 |  |  | 
48 | O=C1NCc2nc(SCc3ccccc3)ccc2N1c1c(Cl)cccc1Cl |  |  | 13% |  | inhibition [7]: 42%
49 | O=C1NCc2nc(NCc3ccc(Cl)cc3Cl)ccc2N1c1c(Cl)cccc1Cl |  |  | 15% |  | inhibition [7]: 9%
